Data published in PMC11242993, “Evaluation of the Therapeutic Potential of Sulfonyl Urea Derivatives as Soluble Epoxide Hydrolase (sEH) Inhibitors” (Molecules, 2024).
≈ marks a conversion by molar mass, not a printed value.

Assays:
[1] = test system: C57BL/6J male mice; assay: Tail-flick reflex model; format: in vivo; settings: single intraperitoneal injection at 10 mg/kg
Description: A tail-flick reflex test was performed as previously described. The parameters of the tail-flick instrument (7360, Ugo Basile Instruments, Varese, Italy) were set up to keep the baseline at 2.5–4.0 s. Mice were fixed and the part about 1.5–2 cm away from the tail of the mouse was aligned with the infrared emission hole of the instrument. […] Latencies of mice of less than 2 s or more than 5 s were excluded. […] The cut-off time in the tail-flick reflex test was set at 8 s to avoid sensitization and damage to the skin and to achieve the maximum possible effect (MPE%) = (measured value − basic value) × 100/(cut-off − basic value). C57BL/6J male mice obtained from The Jackson Laboratory (Bar Harbor, ME, USA) weighing 28 g were used for the tail-flick test. Animal procedures were conducted following the rules and regulations of the Institutional Animal Care and Use Committee of the National Institute on Alcohol Abuse and Alcoholism (NIAAA) under the protocols of LPS-GK1.

[2] = Aqueous (kinetic, nephelometric) solubility in PBS; format: physicochemical
Description: Aliquots of 5 µL of 20.00 mM, 10.00 mM, 5.00 mM, 2.50 mM, 1.25 mM, 0.63 mM, 0.31 mM, 0.16 mM DMSO stock solutions of the control (highly soluble 2′-deoxy-5-fluorouridine and insoluble raloxifen hydrochloride) and the test compounds were loaded in 96-well microplates with clear flat bottoms in duplicates. Then, 250 µL of PBS was dispensed into each well using a Multidrop Combi dispenser to reach the concentrations of 400.0 µM, 200.0 µM, 100.0 µM, 50.0 µM, 25.0 µM, 12.5 µM, 6.25 µM, 3.125 µM for each compound with 2% final DMSO. Then, the resulting solutions were incubated for 15 min at room temperature. The effective range of this assay is approximately 5–200 µM. The solubility of each compound was calculated using the dedicated fitting algorithm. The physical base of nephelometric titration fitting is based on the quick increase in turbidity when a concentration of the tested compound reaches its solubility level. An intersection of the regression line of the high-level turbidity points with the calculated baseline was plotted for each compound. The baseline is a linear regression line plotted for fully soluble control compound DOFU. Each concentration point signal of the test article was compared with the corresponding signal of DOFU. […]

O=C(NC12CC3CC(CC(C3)C1)C2)NS(=O)(=O)c1ccc(OC(F)(F)F)cc1 [Compound 4f]
analgesic activity in tail-flick model [1]: significant efficacy
solubility at 15 min ([2]; PBS, pH 7.4, aqueous buffer, kinetic from dmso stock, read-out: Aq. Solubility pH = 7.4): 53 µg/mL (≈ 127 µM)
aqueous solubility (in words) ([2]; pH 7.4): moderate aqueous solubility
